Compared with COc1ccc(C(=O)Nc2ccc3ccc(Oc4ccccc4)nc3n2)nn1, COc1ccc(C(=O)NN=Cc2ccc3ccccc3n2)cc1 is higher in melting point: 95 °C for the first, 217 to 218 °C for the second.

Compared with C1=CC2=Nc3ccccc3OCN2C=C1, Cc1onc(-c2ccccc2)c1-c1ccccc1 is lower in melting point: 125 to 127 °C for the first, 95.5 to 96.2 °C for the second.

First: CN(C)CCn1c(-c2ccc(Cl)cc2)cc2c1CCSC2
Second: CCc1cc(CC)c2ccc(=O)n(CCN(C)C)c2n1
The melting point of the first is higher: 91.5 to 92.5 °C for the first, 59.5 to 61 °C for the second.

First: COc1cc(OC)cc(-c2ncn(-c3ccc(C(F)(F)F)cc3)c2-c2ccc(N(C)C)cc2)c1
Second: CN(C)c1ccc(-c2nnc(N(C)C)nc2-c2ccc(N(C)C)cc2)cc1
The melting point of the first is lower: 84 to 84.5 °C for the first, 170 to 172 °C for the second.

Compared with O=C(Nc1c(Cl)cncc1Cl)c1ccc(OC(F)F)c2oc3ccccc3c12, CC(c1oc2ccccc2c(=O)c1-c1cccc(F)c1)n1nc(-c2ccc(O)c(O)c2)c2c(N)ncnc21 (stereo not given) is lower in melting point: 270 °C for the first, 193 to 195 °C for the second.

First: Cc1cc(OCC(=S)Nc2cccc(C(=O)O)c2)ccc1C(C)C
Second: COC(=O)c1cc(-c2c(OC)cccc2OC)n(-c2cc(C(=O)O)ccc2C)n1
The melting point of the first is lower: 174 to 176 °C for the first, 189 °C for the second.

Compared with CC(C)Oc1cc(CCCOc2nc(Cc3ccccc3)sc2CC(=O)O)n(Cc2ccc(Cl)cc2Cl)n1, Cc1cccc(CC(=O)O)c1OCCCc1cc(OC(C)C)nn1Cc1ccc(Cl)cc1Cl is lower in melting point: 106 to 108 °C for the first, 70 to 71 °C for the second.

Compared with CCCCCCCCCCCCCCCCCCOc1cc(OCCCOc2ccc(S(C)=O)cc2)cc(C(=O)OC)c1 (stereo not given), CCCCCCCCCCCCCCCCCCOc1ccc(OCCCc2ccccc2)c(C(=O)N(CC(=O)OCC)CC(=O)OCC)c1 is lower in melting point: 86 to 88 °C for the first, 54 to 55 °C for the second.

First: Cc1cc(C)nc(NC(=O)c2ccncc2)c1
Second: Cc1cccc(C)c1NC(=O)c1ccc(S(C)=O)cc1 (stereo not given)
The melting point of the first is lower: 142 °C for the first, 144 to 146 °C for the second.

First: CC(C)(C)OC(=O)CCc1ccc(O)cc1CN
Second: CC(C)(C)Oc1ccc2cc(C=O)ccc2c1
The melting point of the first is higher: 154 to 157 °C for the first, 51 to 52 °C for the second.

First: COC(=O)C#CC(=O)c1ccc(Cl)cc1
Second: O=C(Nc1ccc(Cl)cc1)C(Cl)CCl (stereo not given)
The melting point of the first is lower: 49 to 50 °C for the first, 128 to 129 °C for the second.

CNc1ccc(N)cc1C(=O)n1nc(O)c2ccccc21 and C=C(C)C(=O)Oc1ccc2c(c1)C(=O)c1ccccc1C2=O fall in the same range of melting point: 184 to 186 °C for the first, 184 to 186 °C for the second.

First: CC(C)(C)c1cc(NC(=O)Nc2ccccc2C(=O)NC2CCN(C(c3ccccc3)c3ccccc3)CC2)cc(C(C)(C)C)c1O
Second: CC(C)(NC(=O)c1nc2ccc(NCCCN3CCC(OC(c4ccccc4)c4ccccc4)CC3)nn2n1)C(=O)O
The melting point of the first is lower: 218 to 225 °C for the first, 247 to 249 °C for the second.

First: CCNc1cn(-c2cncc(F)c2)nc1C
Second: CCOc1ccc2c(c1)C(C)=CC(C)(C)N2C(=O)OC
The melting point of the first is higher: 85 to 86 °C for the first, 54.5 to 56.5 °C for the second.

First: COc1cc(OC)c(C(C)=O)c(O)c1C
Second: COc1ccc(Nc2ccccc2C(C)=C(Cl)Cl)cc1OC
The melting point of the first is higher: 143 to 144 °C for the first, 94 to 96 °C for the second.

Compared with c1ccc(-c2nnc(-c3ccccn3)o2)cc1, COC(=O)c1nc(Cl)sc1-c1ccccc1 is lower in melting point: 127 to 128 °C for the first, 63 to 65 °C for the second.

Compared with CCOC(=O)Cc1ccc(-c2nc(COc3ccc(COc4nn(-c5ccccc5)cc4/C=C\c4csc(C(C)C)n4)cc3OC)c(C)o2)cc1, COc1ccc(Nc2cnc3c(NCc4ccccc4)nc(NCCO)nc3c2)cc1OC is higher in melting point: 89 to 90 °C for the first, 149 to 150 °C for the second.

First: O=C(CC1CCCCC1)Nc1c(Cl)ccc2nc(NC[C@@H](O)CO)ccc12
Second: Cc1nn(C)c(-n2ccc3cc(Cl)ccc32)c1CCS(=O)(=O)NC(=O)OCC1CC1
The melting point of the first is lower: 155 to 159 °C for the first, 170 °C for the second.

Compared with O=C(CCNC1CC1)Nc1cc(-c2nnc(SCc3cccc(F)c3)o2)ccn1, c1cc2c(cc1CSc1nnc(-c3ccc4c(c3)CCO4)o1)CCO2 is higher in melting point: 102 to 103 °C for the first, 130 to 132 °C for the second.

Compared with COc1ccc(C(O)CNC(C)Cc2ccc(OCCO)cc2)cc1F (stereo not given), COc1ccc(CNc2cc(OC)c(OC)c(OC)c2)cc1 is lower in melting point: 112 to 115 °C for the first, 77 to 78 °C for the second.

First: O=S1(=O)c2cccc3cccc(c23)N1CCCN1CCN(c2ccc(F)cc2)CC1
Second: CCCC(=O)c1cnc2c(NCCCN3CCOCC3)cccc2c1Nc1ccccc1C
The melting point of the first is lower: 95 to 97 °C for the first, 110 to 111 °C for the second.

Compared with CCn1c(=O)c2[nH]c(/C=C/c3ccc(OC)c(F)c3)nc2n(CC)c1=O, CCOc1cc(C(CC#N)N2C(=O)c3cccc([N+](=O)[O-])c3C2=O)ccc1OC (stereo not given) is lower in melting point: greater than 270 °C for the first, 156 to 157 °C for the second.

First: O=C(O)c1c(C(F)(F)F)nn(-c2c(Cl)cc(C(F)(F)F)cc2Cl)c1C(F)(F)F
Second: Cc1nn2c(C(F)(F)F)cc(-c3cccc(C(F)(F)F)c3)nc2c1C#N
The melting point of the first is lower: 185 to 190 °C for the first, 215 °C for the second.

First: O=S(=O)(c1ccc(Cl)cc1)N1CCC[C@@H](Nc2nccc(-c3c(-c4cccc(C=NO)c4)nc4sccn34)n2)C1
Second: CN(C)C(=O)N1CCC(Nc2ncc3ncnc(Nc4ccc(F)c(Cl)c4)c3n2)CC1
The melting point of the first is higher: 238 to 240 °C for the first, 187 to 188 °C for the second.

First: CCC(C)(C)c1cc(-c2cccc(C=C3SC(N4CCCC4)=NC3=O)c2)ccc1O
Second: O=C(c1ccc(-c2ccccc2)cc1)C(Br)CC(=O)N1CCC[C@H]1C(=O)O (stereo not given in full)
The melting point of the first is higher: 282 to 283 °C for the first, 131 to 133 °C for the second.

Compared with CC(=O)O[C@H]1C[C@@H](n2cnc3c(=O)[nH]cnc32)[C@H](O)[C@@H]1O (racemic), CCOC(=O)c1ncn(-c2nccs2)c1N is lower in melting point: 240 to 242 °C for the first, 120 to 123 °C for the second.

First: CCn1nc2c(N)nc3ccccc3c2c1CC1(O)CCN(S(C)(=O)=O)CC1
Second: CCCc1nc2c(N)nc3ccccc3c2n1CCCC(=O)OCC
The melting point of the first is higher: 268 to 270 °C for the first, 154 to 156 °C for the second.

First: Cn1nnc(-c2[nH]c3ccccc3c2Cl)n1
Second: C=C1C(=O)NC(=O)N1c1ccccc1
The melting point of the first is higher: 197 to 199 °C for the first, 168 to 170 °C for the second.

Compared with CN(O)C(=O)c1ccc(CCCNc2ccc(O)cc2)cc1, O=c1ccc2ccc(OCCCCCc3ccccc3)cc2o1 is lower in melting point: 152 to 153 °C for the first, 103 °C for the second.

Compared with COC(=O)C1=C(C)CN(c2ccccc2)C1=O, O=C1NC(=O)C(Cc2ccccc2)S1 (stereo not given) is lower in melting point: 143 to 145 °C for the first, 83 to 86 °C for the second.

Compared with CCNC(=S)NS(=O)(=O)c1cc2c(cc1OC)OC(C)(C)C(NC(=O)c1cc(F)ccc1OC)C2 (stereo not given), CCC1C(C=O)=NN=C(c2ccc(OC)c(OC)c2)c2cc(OC)c(OC)cc21 (stereo not given) is lower in melting point: 211 °C for the first, 103 to 105 °C for the second.

Compared with CC(C)Oc1c(C(=O)Nc2nnn[nH]2)sc2c1CCCC2, Cc1nc2n(c(=O)c1CCN1CCC(=C(c3ccccc3)c3ccccc3)CC1)CCCS2 is lower in melting point: 223 to 225 °C for the first, 176 °C for the second.

First: Fc1ccc(-c2cc3[nH]ccn3n2)cc1
Second: Cc1[nH]c(=O)ccc1-c1ccc2nccn2c1
The melting point of the first is lower: 225 to 227 °C for the first, 290 to 292 °C for the second.

First: OCc1ccc(-c2cccnc2)s1
Second: Nc1ccc(Cn2ncnn2)cc1
The melting point of the first is higher: 89 to 90 °C for the first, 86 to 87 °C for the second.

First: O=C(O)C(Cc1ccccc1)Oc1ccc(-c2ccc(-c3c(Cc4ccccc4)sc4ccccc34)cc2)cc1 (stereo not given)
Second: C=C(Nc1nc(-c2ccccc2)c(-c2nc3ccccc3c(=O)n2-c2ccccc2)s1)c1ccco1
The melting point of the first is lower: 165 to 167 °C for the first, 271 to 272 °C for the second.

First: NC(=O)N(O)CCOCc1ccco1
Second: NC(=O)OCC(O)Cn1oc2ccc(Cl)cc2c1=O (stereo not given)
The melting point of the first is lower: 72 to 75 °C for the first, 161 to 162 °C for the second.

First: CC(=O)N1CCc2cc(Br)cc(N)c21
Second: CCn1cc(C(=O)O)c(=O)c2cc(F)c(N3CC(C)(N)C3)c(F)c21
The melting point of the first is lower: 154 to 155 °C for the first, 293 to 296 °C for the second.

First: O=C(O)c1ccsc1Cl
Second: Cc1ccc2c(c1)c1cc(C(=O)O)sc1n2C
The melting point of the first is lower: 166 to 167 °C for the first, 216 to 219 °C for the second.

Compared with C=CCOC(=O)c1cccc(NC(=O)NCC(=O)N(CC(=O)OC(C)(C)C)c2ccccc2C(=O)c2ccccc2)c1, O=CN(O)C(Cc1cccc(CC(=O)O)c1)CS(=O)(=O)c1ccc(Oc2ccc(OC(F)(F)F)cc2)cc1 (stereo not given) is higher in melting point: 105 to 107 °C for the first, 138 to 140 °C for the second.

CC(=O)Nc1ccc(NCc2cnc3nc(N)nc(N)c3n2)cc1 and Cc1ccc(Nc2nc(C)c(-c3nc4ccccc4c(=O)n3-c3ccc(Cl)cc3)s2)cc1 cannot be ordered by melting point: greater than 260 °C for the first, greater than 275 °C for the second.

COC(=O)CCC#Cc1cc(Cl)ccc1NS(=O)(=O)c1ccc(C(F)(F)F)cc1 and CN(Cc1ccccc1)c1cc(Oc2cccc(C(F)(F)F)c2)nc(C(=O)O)c1 cannot be ordered by melting point: 80 °C for the first, 80 to 82 °C for the second.

First: CN1CCN(CC(=O)Nc2ccc3c(c2)C(=O)c2cc(NC(=O)CN4CCN(C)CC4)ccc2C3=O)CC1
Second: CC(C)N(CCCC1CCN(CCNC(=O)N2c3cc(Cl)ccc3C(=O)Nc3cccnc32)CC1)C(C)C
The melting point of the first is lower: 173 °C for the first, 175 to 176 °C for the second.

Compared with CCCCCCSc1ccc(SCCCCCC)c(C(=O)O)n1, CCCCCCCCCCCC(CC(=O)C(CCCCCC)C(=O)OC)OC1CCCCO1 (stereo not given) is lower in melting point: 40 to 42 °C for the first, 37 to 38 °C for the second.

First: CC(C)(C)c1ccc(Cn2[nH]c(N)cc2=O)cc1
Second: COC1(c2ccc(C(C)C)cc2O)C(=O)c2ccccc2C1=O
The melting point of the first is lower: 126 °C for the first, 272 to 274 °C for the second.

Compared with COc1cccc(C2(C(C)(C)O)CCN(C)CC2)c1OC, CN1Cc2ccccc2C(Oc2ccc([N+](=O)[O-])cc2)C1 (stereo not given) is higher in melting point: 97 °C for the first, 142 to 143 °C for the second.

First: N#CC(C#N)=C(NCCN1CCCCC1)N1CCC(CN2CCCCC2)CC1
Second: C=Cc1c(C)c2c(c(O)c1C/C=C1\CCCC1CC(=O)O)C(=O)OC2 (stereo not given)
The melting point of the first is lower: 78 to 80 °C for the first, 141 to 142 °C for the second.

Compared with O=C(O)CCCc1ccc2c(c1)CCC2, CCCc1c(OCC(O)COc2ccc(CC(=O)O)cc2Br)ccc(C(C)=O)c1O (stereo not given) is higher in melting point: 57 to 58 °C for the first, 84 °C for the second.

Compared with N#Cc1cc(NC(=O)c2cc3ccccc3s2)ccc1N(CCO)CCO, CN(c1cccc2cc(-c3ncc(CN4CCC5(CC4)CNC(=O)O5)s3)[nH]c12)S(=O)(=O)c1cccs1 is higher in melting point: 163 to 168 °C for the first, 224 °C for the second.

First: CCC([O-])=C(C(=O)OC)N1C(=O)CC1[N+](CC)(CC)CC (stereo not given)
Second: Cc1coc2c1C(C)(O)C1=C(CCCC1C)C2=O (stereo not given)
The melting point of the first is lower: 109 to 110 °C for the first, 139 to 141 °C for the second.

First: C=CCc1cc(C(N)=NO)ccc1O
Second: OC(CCCCCCCCCCOCc1ccccc1)c1ccc(OCc2ccccc2)c(OCc2ccccc2)c1 (stereo not given)
The melting point of the first is higher: 144 °C for the first, 50 to 52 °C for the second.
